Results: patent US7524860B2, “Antibacterial agents” (Pfizer Inc., priority 2004, dated 2009)
Values after ≈ are worked out from the molar mass of the structure shown.

Test system: Neisseria gonorrhoeae, GC525 (NG-2888)
Assay: in-vitro antibacterial activity, microbroth dilution MIC susceptibility testing
Assay type: cell-based
Settings: Neisseria gonorrhoeae, microbroth dilution in gonococcal broth, 20-24 hours at 35 C, lowest concentration preventing visible growth, read-out: MIC
Description: The in-vitro antibacterial activity of selected compounds was determined against a stain of Neisseria gonorrhoeae, GC525 (NG-2888), which is described by Rouquette-Loughlin et al, in Journal of Bacteriology, February 2003, p. 1101-1106, at p. 1103. In general, minimum inhibitory concentration (MIC) susceptibility testing followed procedures recommended by the National Committee for Clinical Laboratory Standards (NCCLS^1-2) or followed the descriptions described below:
Neisseria gonorrhoeae strains were grown on Chocolate Agar II plates (BBL—Becton Dickinson Microbiology Systems, Cockeysville, Md.) and incubated at 35° C. in a humidified 5% CO2 incubator (Form a Scientific, Marietta Ohio). For microbroth dilution MIC testing, N. gonorrhoeae were tested in gonococcal broth (GCB):
Gram stains were also utilized. Permanent Stock Culture Collection
Bacterial stock cultures are stored as frozen suspensions at −70 C. N. gonorrhoeae cultures are suspended in inactivated Horse Serum (Colorado Serum Company, Denver, Colo.) containing 7.5% glucose prior to snap freezing in a dry ice/ethanol bath.
Preparation of Standardized Test Inocula and Plate Inoculation
Frozen stock cultures were used as the initial source of organisms for performing microbroth dilution MIC testing. Stock cultures were passed on their respective growth medium at least one growth cycle (18-24 hours) prior to their use. Bacterial culture suspensions were prepared directly from Chocolate Agar II plates into 10 mL cation-adjusted Mueller-Hinton Broth (CAMHB, BBL, # BB215069). Before use, cultures were adjusted to an optical density value of 1.6-2 on a Perkin-Elmer Lambda EZ150 Spectrophotometer (Wellesley, Mass.) set at a wavelength of 600 nm. Random cultures were plated for validation of actual colony counts. The adjusted cultures were diluted 400-fold (0.25 mL inoculum+100 mL GCB) into gonococcal broth producing a starting inoculum of approximately 5×10^5 cfu/mL. These cultures were inoculated into test plates (100 uL/well) using a Biomek® FX workstation (Beckman Coulter Inc., Fullerton, Calif.). The inoculated plates were placed in stacks of no more than 4 and covered with an empty plate. Plates were incubated for 20-24 hours at 35 C in a humidified CO2 incubator.
Test Compound (“Drug”) Preparation
Drug stock solutions (2 mg/mL in DMSO) were prepared on the day of testing. Drugs were weight corrected for assay content where necessary.
Drug Dilution Tray Preparation
Microbroth dilution stock plates were prepared in two dilution series, 64-0.06 ug drug/mL and 1-0.001 ug drug/mL. For the high concentration series, 200 uL of stock solution (2 mg/mL) was added to duplicate rows of a 96-well plate. This was used as the first well in the dilution series. Serial two-fold decremental dilutions were made using a BioMek FX robot (Beckman Coulter Inc., Fullerton, Calif.) with 10 of the remaining 11 wells, each of which contained 100 uL of the appropriate solvent/diluent. Row 12 contained solvent/diluent only and served as the control. For tube one of the low concentration series, 200 uL of a 31.25 ug/mL stock was added to duplicate rows of a 96-well plate. Serial two-fold dilutions were made as described above.
Daughter plates were spotted (3.2 uL/well) from the stock plates listed above using the BioMek FX robot and were inoculated with organism (100 uL/well) as described previously.
After incubation, the degree of growth in each well was read visually with the aid of a Test Reading Mirror (Dynatech Lab 220-16, Dynex Technologies, Chantilly, Va.). 96-well test plates are read in a darkened room with a single light shining from above. The MIC is the lowest concentration of drug that prevents macroscopically visible growth under the conditions of the test. […] If MIC values in duplicate tests differ by 1 well (two-fold), the […] value is reported. If duplicate tests vary by 2 dilutions (four-fold), the middle value is reported.

| MIC [µg/mL] | SMILES |
| --- | --- |
| 2 (≈ 5.07 µM) | CCNC(=O)Nc1nc2cc(-c3ccc(C(C)C)cc3)cc(C(=O)NCC)n2n1 [Example 61, 2-(3-Ethyl-ureido)-7-(4-isopropyl-phenyl)-[1,2,4]triazolo[1,5-a]pyridine-5-carboxylic acid ethylamide] |
| 8 (≈ 20.8 µM) | CCNC(=O)Nc1nc2cc(-c3ccc(F)cc3C)cc(C(=O)NCC)n2n1 [Example 63, 2-(3-Ethyl-ureido)-7-(4-fluoro-2-methyl-phenyl)-[1,2,4]triazolo[1,5-a]pyridine-5-carboxylic acid ethylamide] |
| 32 (≈ 84.8 µM) | CCNC(=O)Nc1nc2cc(-c3ccccc3C#N)cc(C(=O)NCC)n2n1 [Example 65, 7-(2-Cyano-phenyl)-2-(3-ethyl-ureido)-[1,2,4]triazolo[1,5-a]pyridine-5-carboxylic acid ethylamide] |
| 4 (≈ 10.3 µM) | CCNC(=O)Nc1nc2cc(-c3cc(F)ccc3F)cc(C(=O)NCC)n2n1 [Example 66, 7-(2,5-Difluoro-phenyl)-2-(3-ethyl-ureido)-[1,2,4]triazolo[1,5-a]pyridine-5-carboxylic acid ethylamide] |
| 1 (≈ 2.59 µM) | CCNC(=O)Nc1nc2cc(-c3cccc(Cl)c3)cc(C(=O)NCC)n2n1 [Example 67, 7-(3-Chloro-phenyl)-2-(3-ethyl-ureido)-[1,2,4]triazolo[1,5-a]pyridine-5-carboxylic acid ethylamide] |
| 1 (≈ 2.7 µM) | CCNC(=O)Nc1nc2cc(-c3cccc(F)c3)cc(C(=O)NCC)n2n1 [Example 70, 2-(3-Ethyl-ureido)-7-(3-fluoro-phenyl)-[1,2,4]triazolo[1,5-a]pyridine-5-carboxylic acid ethylamide] |
| 4 (≈ 11.4 µM) | CCNC(=O)Nc1nc2cc(-c3ccccc3)cc(C(=O)NCC)n2n1 [Example 71, 2-(3-Ethyl-ureido)-7-phenyl-[1,2,4]triazolo[1,5-a]pyridine-5-carboxylic acid ethylamide] |
| 8 (≈ 19.8 µM) | CCNC(=O)Nc1nc2cc(-c3cccc4ncccc34)cc(C(=O)NCC)n2n1 [Example 78, 2-(3-Ethyl-ureido)-7-quinolin-5-yl-[1,2,4]triazolo[1,5-a]pyridine-5-carboxylic acid ethylamide] |
| > 64 | CCNC(=O)Nc1nc2cc(-c3ccccc3C(F)(F)F)cc(C(=O)NCC)n2n1 [Example 82, 2-(3-Ethyl-ureido)-7-(2-trifluoromethyl-phenyl)-[1,2,4]triazolo[1,5-a]pyridine-5-carboxylic acid ethylamide] |
| 16 (≈ 36 µM) | CCNC(=O)Nc1nc2cc(-c3cccnc3)cc(C(=O)N(C)C(C)c3ccncc3)n2n1 (stereo not drawn) [Example 86, 2-(3-Ethyl-ureido)-7-pyridin-3-yl-[1,2,4]triazolo[1,5-a]pyridine-5-carboxylic acid methyl-(1-pyridin-4-yl-ethyl)-amide] |
| 8 (≈ 16.5 µM) | CCNC(=O)Nc1nc2cc(-c3cccnc3)cc(C(=O)NCc3cnccc3C(F)(F)F)n2n1 [Example 87, 2-(3-Ethyl-ureido)-7-pyridin-3-yl-[1,2,4]triazolo[1,5-a]pyridine-5-carboxylic acid(4-trifluoromethyl-pyridin-3-ylmethyl)-amide] |
| 8 (≈ 18 µM) | CCNC(=O)Nc1nc2cc(-c3cccnc3)cc(C(=O)N(C)Cc3ncccc3C)n2n1 [Example 89, 2-(3-Ethyl-ureido)-7-pyridin-3-yl-[1,2,4]triazolo[1,5-a]pyridine-5-carboxylic acid methyl-(3-methyl-pyridin-2-yl-methyl)-amide] |

The next lines start with the molecule.

| SMILES | MIC [µg/mL] |
| --- | --- |
| CCNC(=O)Nc1nc2cc(-c3cccc(SC)c3)cc(C(=O)NCC)n2n1 [Example 60, 2-(3-Ethyl-ureido)-7-(3-methyl-sulfanyl-phenyl)-[1,2,4]triazolo[1,5-a]pyridine-5-carboxylic acid ethylamide] | > 16 |
| CCNC(=O)Nc1nc2cc(-c3cccc(C(C)C)c3)cc(C(=O)NCC)n2n1 [Example 62, 2-(3-Ethyl-ureido)-7-(3-isopropyl-phenyl)-[1,2,4]triazolo[1,5-a]pyridine-5-carboxylic acid ethylamide] | 2 (≈ 5.07 µM) |
| CCNC(=O)Nc1nc2cc(-c3ccc(F)cc3F)cc(C(=O)NCC)n2n1 [Example 64, 7-(2,4-Difluoro-phenyl)-2-(3-ethyl-ureido)-[1,2,4]triazolo[1,5-a]pyridine-5-carboxylic acid ethylamide] | > 64 |
| CCNC(=O)Nc1nc2cc(-c3ccc(C)cc3)cc(C(=O)NCC)n2n1 [Example 68, 2-(3-Ethyl-ureido)-7-p-tolyl-[1,2,4]triazolo[1,5-a]pyridine-5-carboxylic acid ethylamide] | 2 (≈ 5.46 µM) |
| CCNC(=O)Nc1nc2cc(-c3ccc(F)cc3)cc(C(=O)NCC)n2n1 [Example 69, 2-(3-Ethyl-ureido)-7-(4-fluoro-phenyl)-[1,2,4]triazolo[1,5-a]pyridine-5-carboxylic acid ethylamide] | 8 (≈ 21.6 µM) |
| CCNC(=O)Nc1nc2cc(-c3ccccc3F)cc(C(=O)NCC)n2n1 [Example 72, 2-(3-Ethyl-ureido)-7-(2-fluoro-phenyl)-[1,2,4]triazolo[1,5-a]pyridine-5-carboxylic acid ethylamide] | 4 (≈ 10.8 µM) |
| CCNC(=O)Nc1nc2cc(-c3ccccc3C)cc(C(=O)NCC)n2n1 [Example 73, 2-(3-Ethyl-ureido)-7-o-tolyl-[1,2,4]triazolo[1,5-a]pyridine-5-carboxylic acid ethylamide] | 16 (≈ 43.7 µM) |
| CCNC(=O)Nc1nc2cc(-c3cccnc3)cc(C(=O)NC3CCC3)n2n1 [Example 75, 2-(3-Ethyl-ureido)-7-pyridin-3-yl-[1,2,4]triazolo[1,5-a]pyridine-5-carboxylic acid cyclobutylamide] | 2 (≈ 5.27 µM) |
| CCNC(=O)Nc1nc2cc(-c3cccnc3)cc(C(=O)N(C)Cc3cc(C)no3)n2n1 [Example 76, 2-(3-Ethyl-ureido)-7-pyridin-3-yl-[1,2,4]triazolo[1,5-a]pyridine-5-carboxylic acidmethyl-(3-methyl-isoxazol-5-yl-methyl)-amide] | 8 (≈ 18.4 µM) |
| CCNC(=O)Nc1nc2cc(-c3cccnc3)cc(C(=O)N3CCCC3C)n2n1 (stereo not drawn) [Example 77, 1-Ethyl-3-[5-(2-methyl-pyrrolidine-1-carbonyl)-7-pyridin-3-yl-[1,2,4]triazolo[1,5-a]pyridin-2-yl]-urea] | 1 (≈ 2.54 µM) |
| CCNC(=O)Nc1nc2cc(-c3ccc(OC(C)C)cc3)cc(C(=O)NCC)n2n1 [Example 80, 2-(3-Ethyl-ureido)-7-(4-isopropoxy-phenyl)-[1,2,4]triazolo[1,5-a]pyridine-5-carboxylic acid ethylamide] | > 64 |
| CCNC(=O)Nc1nc2cc(-c3cccc(C#N)c3)cc(C(=O)NCC)n2n1 [Example 81, 7-(3-Cyano-phenyl)-2-(3-ethyl-ureido)-[1,2,4]triazolo[1,5-a]pyridine-5-carboxylic acid ethylamide] | 2 (≈ 5.3 µM) |
| CCNC(=O)Nc1nc2cc(-c3cccnc3)cc(C(=O)N(CC)Cc3ccncc3)n2n1 [Example 88, 2-(3-Ethyl-ureido)-7-pyridin-3-yl-[1,2,4]triazolo[1,5-a]pyridine-5-carboxylic acidethyl-pyridin-4-ylmethyl-amide] | 8 (≈ 18 µM) |
| CCNC(=O)Nc1nc2cc(-c3cccnc3)cc(C(=O)N(C)C(C)c3ccccn3)n2n1 (stereo not drawn) [Example 90, 2-(3-Ethyl-ureido)-7-pyridin-3-yl-[1,2,4]triazolo[1,5-a]pyridine-5-carboxylic acidmethyl-(1-pyridin-2-yl-ethyl)-amide] | > 64 |
| CCNC(=O)Nc1nc2cc(-c3cccnc3)cc(C(=O)NCc3cccnc3)n2n1 [Example 91, 2-(3-Ethyl-ureido)-7-pyridin-3-yl-[1,2,4]triazolo[1,5-a]pyridine-5-carboxylic acid(pyridin-3-ylmethyl)-amide] | 16 (≈ 38.4 µM) |
